Measurements reported in ChEMBL document CHEMBL1130976, “5-Aminomethylquinoxaline-2,3-diones. Part I: A novel class of AMPA receptor antagonists” (Bioorg Med Chem Lett, 1998).

How the values were obtained:
[1] = target: Glutamate receptors; NMDA/AMPA; assay: In vitro binding affinity to the AMPA receptor using [3H]AMPA binding assay; format: protein-complex assay
[2] = target: Glutamate receptor ionotropic, NMDA 1 (Rattus norvegicus, UniProt P35439); assay: Tested for in vitro binding affinity against glycine-bining site of NMDA receptor using [3H]MDL-105519 binding assay
[3] = target: Glutamate receptor ionotropic, AMPA (Rattus norvegicus) (UniProt P19491+P19492+P19493+P19490); assay: Tested for in vitro binding affinity against AMPA receptor using [3H]AMPA binding assay at a concentration of 1 uM; format: protein-complex assay
Mus musculus [4] = assay: Tested for anticonvulsion activity in the electroshock-induced convulsion assays in mice after 30 min of ip administration; format: functional; details: 0.5 h
Mus musculus [5] = assay: Tested for anticonvulsion activity in the metrazole-induced convulsion assays in mice after 30 min of ip administration; format: functional; details: 0.5 h
Mus musculus [6] = assay: Tested for anticonvulsion activity in the mice after 1 hr pretreatment of oral administration; format: functional
[7] = Tested for solubility in water at pH 7.4; format: ADME
Mus musculus [8] = assay: Tested for anticonvulsion activity in the electroshock-induced convulsion assays in mice at 50 mg/kg after 30 min (i.p. administration ); format: functional; details: route intraperitoneal
Mus musculus [9] = assay: Tested for anticonvulsion activity in the electroshock-inducedconvulsion assays in mice at 50 mg/kg after 30 min (i.p. administration ); format: functional; details: route intraperitoneal

SMILES | IC50 [1] [nM] | further results
CN1CCN(Cc2cc3nc(O)c(O)nc3cc2[N+](=O)[O-])CC1 | 3400 | –
O=[N+]([O-])c1cc2nc(O)c(O)nc2cc1CN1CCC(O)CC1 | 310 | –
O=[N+]([O-])c1cc2nc(O)c(O)nc2cc1CN1CCCCC1 | 290 | –
O=[N+]([O-])c1cc2nc(O)c(O)nc2cc1CN1CC=CCC1 | 360 | –
O=[N+]([O-])c1cc2nc(O)c(O)nc2cc1CN1CCC1 | 1500 | IC50 [2]: 3800 nM
O=C(O)[C@H]1[C@H](O)CCN1Cc1cc2nc(O)c(O)nc2cc1[N+](=O)[O-] | 2100 | –
O=[N+]([O-])c1cc2nc(O)c(O)nc2cc1CN1CCOCC1 | 660 | –
O=[N+]([O-])c1cc2nc(O)c(O)nc2cc1CN1CCCC(CO)C1 (stereo not given) | 520 | –
O=C(O)C1CCCCN1Cc1cc2nc(O)c(O)nc2cc1Br (stereo not given) | – | inhibition [3]: 18%
COC1CCN(Cc2cc3nc(O)c(O)nc3cc2[N+](=O)[O-])CC1 | 430 | –
O=[N+]([O-])c1cc2nc(O)c(O)nc2cc1CN1CCNCC1 | 11000 | –
O=[N+]([O-])c1cc2nc(O)c(O)nc2cc1CN1CCCC1CO (stereo not given) | 700 | –
O=[N+]([O-])c1cc2nc(O)c(O)nc2cc1CN1CCCCCC1 | 580 | –
CCN(CC)Cc1cc2nc(O)c(O)nc2cc1[N+](=O)[O-] | 840 | –
Br.CC1CCN(Cc2cc3nc(O)c(O)nc3cc2[N+](=O)[O-])CC1 | 370 | ED50 (Mus musculus [4]): 33 mg/kg; ED50 (Mus musculus [5]): 16 mg/kg; ED50 (Mus musculus [6]): 54 mg/kg
O=C(O)[C@H]1CCCN1Cc1cc2nc(O)c(O)nc2cc1[N+](=O)[O-] | 460 | –

SMILES | IC50 [1] [nM] | further results
O=C(O)C1CCN(Cc2cc3nc(O)c(O)nc3cc2Br)CC1 | 890 | –
O=C(O)C1CCN(Cc2cc3nc(O)c(O)nc3c([N+](=O)[O-])c2Br)CC1 | – | inhibition [3]: 15%
O=C(O)C1CCCN(Cc2cc3nc(O)c(O)nc3cc2Br)C1 (stereo not given) | 2500 | –
Br.O=C(O)C1CCN(Cc2cc3nc(O)c(O)nc3cc2[N+](=O)[O-])CC1 | 70 | solubility [7]: 1680 µg/mL; ED50 (Mus musculus [4]): 44 mg/kg; IC50 [2]: 3900 nM
Br.O=[N+]([O-])c1cc2nc(O)c(O)nc2cc1CN1CCCC1 | 280 | ED50 (Mus musculus [5]): 26 mg/kg; Protection (Mus musculus [8]): 40%
O=[N+]([O-])c1cc2nc(O)c(O)nc2cc1CN1CCCC(O)C1 (stereo not given) | 430 | –
O=C(O)C1(c2ccccc2)CCN(Cc2cc3nc(O)c(O)nc3cc2[N+](=O)[O-])CC1 | 2000 | –
Br.O=[N+]([O-])c1cc2nc(O)c(O)nc2cc1CN1CC=CC1 | 490 | ED50 (Mus musculus [5]): 35 mg/kg; Protection (Mus musculus [9]): 60%
CC1CCCN(Cc2cc3nc(O)c(O)nc3cc2[N+](=O)[O-])C1 (stereo not given) | 600 | –
O=[N+]([O-])c1cc2nc(O)c(O)nc2cc1CN1CCC(c2ccccc2)CC1 | 430 | IC50 [2]: 330 nM
CCOC(=O)C1CCN(Cc2cc3nc(O)c(O)nc3cc2[N+](=O)[O-])CC1 | 350 | IC50 [2]: 590 nM
O=C(O)C1CCCCN1Cc1cc2[nH]c(=O)c(=O)[nH]c2cc1Br (stereo not given) | – | IC50 [2]: 840 nM
Br.O=[N+]([O-])c1cc2nc(O)c(O)nc2cc1CN1CCC(O)C1 (stereo not given) | 330 | ED50 (Mus musculus [4]): 34 mg/kg
CC1CN1Cc1cc2nc(O)c(O)nc2cc1[N+](=O)[O-] (stereo not given) | 2200 | –
NC(=O)C1CCN(Cc2cc3nc(O)c(O)nc3cc2[N+](=O)[O-])CC1 | 760 | –
